Data on 1 compound can be found in patent US20190376971A1, “Compositions and Methods for the Assessment of Drug Target Occupancy for Bruton's Tyrosine Kinase” (Acerta Pharma B.V., priority 2017, published 2019).

The target of this assay is T1, BTK (Canis lupus familiaris, UniProt A0A8I3P3Z9).
T1 construct: PBMCs are isolated from the blood of dogs by Ficoll Paque procedure; from tissue; host or cells: CD21+ B cells purified from PBMCs of dog blood (dogs with spontaneous lymphoma, dosed orally)
The assay is described as follows: BTK target occupancy in canine peripheral CD21+ B cells after oral dosing. It counts as in vivo, dog. The following applies: day 7 prior to repeat dose, 1 day after preceding dose; 2.5 mg/kg once daily, peroral. On the procedure:
The following method may be used for the ELISA BTK target occupancy assay. Other variations of this assay are known to those of skill in the art and may also be used. • 1. Coat a 96-well plate (Optiplate, Perkin Elmer, catalog no. 6005290) with 125 ng/well anti-BTK (BD Biosciences catalog no. 611117) in 100 μL PBS, overnight at 4° C. • 2. Wash 2×200 μL/well PBS-Tween 0.05% (PBST). • 3. Block with 245 μL/well PBST+3% bovine serum albumin (BSA), for 2 to 3 hours at room temperature while shaking. • 4. During blocking, incubate samples with acalabrutinib and probe in Eppendorf tubes: • a. Centrifuge cells 5 minutes at 5000 rpm and 4° C. in Eppendorf centrifuge. • b. Remove supernatant, dilute BTK protein or resuspend cell pellet in cold (2-8° C.) lysis buffer (see below). For amount of cells/μL, see detailed protocols for Ramos (Example 6.2), canine B cells (Example 7.2) and human PBMCs (Example 8.2). • c. Incubate on ice for 30 minutes while shaking. Vortex every 10 minutes. • d. Centrifuge for 10 minutes at 14000 rpm and 4° C. in Eppendorf centrifuge. • e. Transfer supernatant to new tube. • f. […] Wash wells 2×245 μL/well PBST. • 6. Add (in duplicate) 100 μL of each sample (with and without Formula (3)) to the wells. • 7. Incubate for 2 hours at room temperature while shaking. • 8. Wash 4×PBST, 200 μL/well. • 9. […]

T1 sequence (A0A8I3P3Z9 1-664): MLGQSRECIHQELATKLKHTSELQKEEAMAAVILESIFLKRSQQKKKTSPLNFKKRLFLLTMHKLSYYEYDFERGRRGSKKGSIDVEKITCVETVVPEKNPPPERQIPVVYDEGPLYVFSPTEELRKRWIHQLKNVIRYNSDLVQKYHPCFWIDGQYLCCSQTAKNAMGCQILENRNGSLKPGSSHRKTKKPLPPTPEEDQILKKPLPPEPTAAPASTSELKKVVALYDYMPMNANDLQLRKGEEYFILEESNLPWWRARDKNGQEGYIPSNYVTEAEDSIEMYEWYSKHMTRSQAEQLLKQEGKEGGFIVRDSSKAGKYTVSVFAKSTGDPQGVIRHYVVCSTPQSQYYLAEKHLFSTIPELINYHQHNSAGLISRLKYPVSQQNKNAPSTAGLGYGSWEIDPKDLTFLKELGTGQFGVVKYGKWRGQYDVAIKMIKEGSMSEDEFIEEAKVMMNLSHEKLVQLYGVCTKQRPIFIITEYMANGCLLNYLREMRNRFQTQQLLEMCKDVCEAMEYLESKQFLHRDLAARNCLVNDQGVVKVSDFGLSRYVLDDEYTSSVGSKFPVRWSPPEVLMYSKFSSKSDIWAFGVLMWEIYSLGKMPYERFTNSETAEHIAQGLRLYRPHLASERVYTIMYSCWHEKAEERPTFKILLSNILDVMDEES

`CC#CC(=O)N1CCC[C@H]1c1nc(-c2ccc(C(=O)Nc3ccccn3)cc2)c2c(N)nccn12` [acalabrutinib]: the “BTK still occupied, percentage of the predose sample” value amounted to 83%.
